These are literature values, as cited in patent publication US20140348954A1, “PRODUCT COMPRISING GLUCOMANNAN AND CHITOSAN FOR THE TREATMENT OF GASTROESOPHAGEAL REFLUX DISEASE” (DICOFARM S.P.A., priority 2012, published 2014).

The target in the data set is transient receptor potential cation channel subfamily V member 1 (TrpV1) (Homo sapiens, UniProt Q8NER1). Conditions: inflamed human esophagus due to GERD.
Sequence of transient receptor potential cation channel subfamily V member 1 (TrpV1) (Q8NER1 whole entry): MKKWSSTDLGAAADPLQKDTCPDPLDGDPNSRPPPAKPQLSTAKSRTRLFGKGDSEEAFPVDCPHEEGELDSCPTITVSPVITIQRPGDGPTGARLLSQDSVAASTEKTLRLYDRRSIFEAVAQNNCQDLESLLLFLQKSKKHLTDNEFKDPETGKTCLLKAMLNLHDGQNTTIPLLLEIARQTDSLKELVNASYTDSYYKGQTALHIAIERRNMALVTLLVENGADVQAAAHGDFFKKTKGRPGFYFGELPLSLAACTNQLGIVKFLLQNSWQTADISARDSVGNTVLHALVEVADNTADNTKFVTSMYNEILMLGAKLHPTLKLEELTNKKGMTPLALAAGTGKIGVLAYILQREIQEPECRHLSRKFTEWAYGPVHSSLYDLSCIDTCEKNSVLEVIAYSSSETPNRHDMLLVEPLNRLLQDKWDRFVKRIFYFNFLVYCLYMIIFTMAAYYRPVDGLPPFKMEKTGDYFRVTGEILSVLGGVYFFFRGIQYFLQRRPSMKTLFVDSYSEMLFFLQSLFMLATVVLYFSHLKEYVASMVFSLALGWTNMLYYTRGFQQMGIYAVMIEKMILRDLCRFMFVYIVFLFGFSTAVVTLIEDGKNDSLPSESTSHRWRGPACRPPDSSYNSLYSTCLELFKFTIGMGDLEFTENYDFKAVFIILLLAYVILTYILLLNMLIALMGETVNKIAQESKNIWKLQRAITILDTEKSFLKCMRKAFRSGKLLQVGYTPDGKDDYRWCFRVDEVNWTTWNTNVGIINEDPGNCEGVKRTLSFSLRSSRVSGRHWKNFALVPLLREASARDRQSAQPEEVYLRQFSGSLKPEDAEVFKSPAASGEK

`COc1cc(/C=C/C(=O)CC(=O)/C=C/c2ccc(O)c(OC)c2)ccc1O` [curcumin]: the “action on TrpV1” value is on record as “typical activator”.
